The values that follow are results of earlier work, collected in US20130030007A1, “Obesity Small Molecules” (AKRON MOLECULES GMBH, priority 2010, published 2013).

Starred links: 1 amine or outer side, 2 acyl side, 3 side chain; linkers in the order of their positions; H or OH if unused. Positions of bridges follow the written chain, without caps; N, C: chain ends. Non-standard residues stand in square brackets, D forms with d. Residues, ends and D or L forms follow the SMILES beside them. Adda = CO[C@@H](Cc1ccccc1)[C@@H](C)/C=C(C)/C=C/[C@H](N[*:1])[C@H](C)C(=O)[*:2]; dAsp(3S-Me) = C[C@H](C(=O)[*:3])[C@@H](N[*:1])C(=O)[*:2]; d(γGlu) = O=C(O)[C@@H](CCC(=O)[*:2])N[*:1]; NMeDha = C=C(NC)C(=O)O

The subject of one data set is human ortholog of Drosophila obesity gene. Also on record: key: O: Obesity - obesity pathway interaction; B: validated binding partner. The note with it: cited from earlier work.
In the case of `CCCCCCCNS(=O)(=O)c1cccc2c(Cl)cccc12`, the “Type: Type of interaction” value is on record as “B”.
On to `COc1ccc(C2=N[C@@H](c3ccc(Cl)cc3)[C@@H](c3ccc(Cl)cc3)N2C(=O)N2CCNC(=O)C2)c(OC(C)C)c1` (racemic) [nutlin 3], for which the “Type: Type of interaction” value is “O”.
Take `Nc1nc2[nH]cc(CCc3ccc(C(=O)N[C@@H](CCC(=O)O)C(=O)O)cc3)c2c(=O)[nH]1` [LY231514]: the “Type: Type of interaction” value is “O”.
Take `C=C1C(=O)N[C@H](C)C(=O)N[C@@H](CC(C)C)C(=O)N[C@@H](C(=O)O)[C@H](C)C(=O)N[C@@H](CCCNC(=N)N)C(=O)N[C@@H](/C=C/C(C)=C/[C@H](C)[C@H](Cc2ccccc2)OC)[C@H](C)C(=O)N[C@@H](C(=O)O)CCC(=O)N1C` [MCYST-LR] (R[Adda][d(γGlu)][NMeDha][dA]L[dAsp(3S-Me)]-OH; lactam N-7): the “Type: Type of interaction” value is recorded as “O”.
Take `CS(=O)(=O)c1cc(F)cc2c3c(n(Cc4ccc(Cl)cc4)c12)[C@@H](CC(=O)O)CC3` [MK-0524]: the “Type: Type of interaction” value is “B”.
`CSC[C@H]1O[C@@H](n2cnc3c(N)ncnc32)[C@H](O)[C@@H]1O` [MeSAdo]: the “Type: Type of interaction” value is “B”.
Regarding `CCCC(C)C1(CC)C(=O)NC(=O)NC1=O` (stereo not shown) [Mebumal], the “Type: Type of interaction” value is reported as “O”.
`CC(=O)O[C@]1(C(C)=O)CC[C@H]2[C@@H]3C[C@H](C)C4=CC(=O)CC[C@]4(C)[C@H]3CC[C@@]21C` [Medroxyprogesterone 17-Acetate]: the “Type: Type of interaction” value was “B”.
For `CCCC(C)(COC(N)=O)COC(N)=O` [Meprobamate], the “Type: Type of interaction” value is listed as “O”.
Consider `CNC[C@H](O)c1cccc(O)c1` [Mesaton], for which the “Type: Type of interaction” value is “B”.
`CN[C@@H](C)Cc1ccccc1` [Meth]: the “Type: Type of interaction” value is “O”.
Regarding `COc1ccc2c(c1)C13CCCCC1C(C2)N(C)CC3` (stereo not shown) [Methorphan], the “Type: Type of interaction” value is “O”.
In the case of `CSc1ncnc2c1ncn2[C@@H]1O[C@H](CO)[C@@H](O)[C@H]1O` [Methylthioinosine], the “Type: Type of interaction” value was “B”.
Take `C[C@]1(O)CC[C@H]2[C@@H]3CCC4=CC(=O)CCC4=C3C=C[C@@]21C` [Metribolone]: the “Type: Type of interaction” value was “B”.
Regarding `c1cncnc1` [Miazine], the “Type: Type of interaction” value is listed as “B”.
For the compound `CCCOC(C(=O)OC1CCN(C)CC1)(c1ccccc1)c1ccccc1` [Mictonorm], the “Type: Type of interaction” value was “B”.
In the case of `Cc1ncc2n1-c1ccc(Cl)cc1C(c1ccccc1F)=NC2` [Midazolam], the “Type: Type of interaction” value was “O”.

The data set is the same for the next values; noted with them: interaction of the small molecule with the human ortholog(s) / Drosophila gene(s) listed in the same table line; cited from earlier work.
Take `O=c1c(O)c(-c2ccc(O)cc2O)oc2cc(O)cc(O)c12` [MORIN]: the “Type: Type of interaction” value was “O”.
In the case of `COc1ccc(Cl)cc1C(=O)NCCc1ccc(S(=O)(=O)NC(=O)NC2CCCCC2)cc1` [Malix], the “Type: Type of interaction” value is “B”.
Consider `CCC(=O)O[C@@H]1CC(=O)O[C@H](C)C/C=C/C=C/[C@H](O)[C@H](C)C[C@H](CC=O)[C@H](O[C@@H]2O[C@H](C)[C@@H](O[C@H]3C[C@@](C)(O)[C@@H](OC(=O)CC)[C@H](C)O3)[C@H](N(C)C)[C@H]2O)[C@H]1OC` [Medemycin], for which the “Type: Type of interaction” value is reported as “O”.
In the case of `COc1ccc2[nH]cc(CCNC(C)=O)c2c1` [Melatol], the “Type: Type of interaction” value is given as “B”.
As to `CC12CC3CC(C)(C1)CC(N)(C3)C2` [Memantine], the “Type: Type of interaction” value was “B”.
In the case of `CC(C)=CCC/C(C)=C/CC/C(C)=C/CC/C(C)=C/CC1=C(C)C(=O)c2ccccc2C1=O` [Menatetrenone], the “Type: Type of interaction” value was “O”.
As for `CCC1(c2ccccc2)NC(=O)N(C)C1=O` (stereo not shown) [Mephenytoin], the “Type: Type of interaction” value is given as “B”.
For `COc1c2occc2cc2ccc(=O)oc12` [Methoxsalen], the “Type: Type of interaction” value is given as “B”.
As for `CC(C)(C(=O)c1cccnc1)c1cccnc1` [Metopiron], the “Type: Type of interaction” value was “O”.
With `CC#C[C@]1(O)CC[C@H]2[C@@H]3CCC4=CC(=O)CCC4=C3[C@@H](c3ccc(N(C)C)cc3)C[C@@]21C` [Mifepristone], the “Type: Type of interaction” value is “B”.
For `NC(Cn1ccc(=O)c(O)c1)C(=O)O` (stereo not shown) [Mimosine], the “Type: Type of interaction” value was “O”.
